How the values were obtained:
[1] = EMS-mutated populations; cited from earlier work
rpoB gene [2] = test: Deep sequencing of the rpoB fragment from Rif^r colonies; format: cell-based, Escherichia coli; settings: 0.1% and 1% EMS, untargeted dCas9
Experimental: Ninety-six Rif^r colonies from 0.1% and 1% EMS treatment assays were picked and colony PCR was carried out to amplify the […] rpoB fragment. Approximately 20 μL PCRs reactions were carried out in 96 well plates, using forward and reverse primers comprising Illumina barcoded adaptors and designed to amplify a […] rpoB fragment associated with mutations conferring the Rif^r phenotype. The success of the reactions was checked by running ˜5 μL of 8-12 samples picked from across the 96 wells and running on e-gels. […] After obtaining the raw reads, adaptor sequences were removed with the program Cutadapt (Martin, EMBnet.journal, 2011, [S1], v17, n1, p. pp. 10-12, ISSN 2226-6089) and low quality reads are filtered with Trimmomatic (Version 0.36) (Bolger et al., Bioinformatics, 30:2114 (2014)). The program ‘glsearch’ (Pearson, Methods Mol Biol., 132:185-219 (2000)), was used to map reads to the reference rpoB sequence and to detect substitutions and small INDELs. […]
Individual colonies as well as plate scrapes (pooled colonies) were sequenced. […] Quality reads were obtained from 71 colonies for treatment 1, 92 colonies for treatment 2, and 89 colonies for treatment 3. Quality reads were also obtained from the Plate scrape samples.

rpoB gene [3] = settings: at eight sites; Garibyan et al.; cited from earlier work
rpoB gene [4] = test: rpoB/Rif^r assay: EMS mutagenesis of E. coli KL16 carrying pNUC-dSpCas9 + pGUIDE-Sp-Zm7.1; format: cell-based, Escherichia coli; settings: for Rif^r CFUs in 5 μL (average) / Rif^r CFUs in 100 μL (average): one hour, cells with pNUC-dCas9 + pGUIDE-Sp-Zm7.1
Excerpt: This example describes the Escherichia coli rpoB gene and Rifampicin-resistant (Rif^r) mutations that map to rpoB as a system to characterize mutation rates and mutation types induced by chemical mutagens.
The E. coli K12 (strain MG1655) rpoB gene (SEQ ID NO: 1) encodes a subunit of the RNA polymerase complex (SEQ ID NO: 2) and is the target of the antibiotic rifampicin, a bacterial transcription inhibitor. A unique feature of the rpoB gene is that at least 69 nucleotide substitutions in 24 amino acid codons can confer the Rif^r phenotype to E. coli. This makes rpoB a useful target for screening and analyzing the type and frequency of nucleotide changes (e.g., additions, deletions, and substitutions induced by mutagens (reviewed in Garibyan et al., 2003, DNA Repair, 2:593-608). Furthermore, a majority of mutations that confer Rifampicin resistance (>90%) map to a relatively small, 268-nucleotide long, region of the rpoB gene. This allows PCR amplification with a single pair of oligonucleotide primers, followed by sequencing, which permits rapid analysis of numerous potential mutations. The aforementioned 268-bp fragment of the E. coli K12 rpoB gene is set forth as SEQ ID NO: 3. […] However, mutants comprising short, in-frame deletions (up to five amino acids) have been found, but at a much lower frequency (see, for example, Jin and Gross, J Mol Biol. 202:45-58 (1988)).
To test the rate and spectrum of mutations induced by EMS on rpoB, an experiment was performed where E. coli KL16 cells were co-transformed with pNUC-dSpCas9 and pGUIDE-Sp-Zm7.1; treated with 0.1% or 1% EMS. Resulting Rif^r mutations were selected and scored. The rpoB gene fragment (SEQ ID NO: 3) was sequenced from each colony and the predominant mutations were identified. As noted above in Example 2, pGUIDE-Sp-Zm7.1 is not expected to target the E. coli chromosome, and thus serves as a negative control.
Approximately 0.7 μL of pNUC-dSpCas9 and pGUIDE-Sp-Zm7.1 plasmid DNAs (approximate concentrations of 50 to 150 ng/μL) were added to 30 μL aliquots of electrocompetent E. coli KL16 cells. The cells and DNA were electroporated in 1 mm gap cuvettes, using Bio-Rad GenePulser II with settings described above in Example 2. Approximately 1 mL of S.O.C. medium was added to the cuvettes, mixed, transferred to culture tubes, and shaken in a 37° C. incubator shaker for ˜90 min at 280 RPM. Approximately 20 μL of the mix was diluted with 380 μL of S.O.C. medium (1:20 dilution), 100 μL was plated on LB plates containing +25 μg/mL Cm, +50 μg/mL Spect antibiotics followed by overnight incubation at 37° C. After overnight growth, the plates contained ˜100-400 uniform single colonies. Four to five single colonies from the plates were picked and mixed in 2.5 mL liquid LB media containing +25 μg/mL Cm, +50 μg/mL Spect. The culture was grown overnight at 37° C. with shaking at 280 RPM. The following day the saturated overnight culture was diluted into 3 mL of fresh LB +25 μg/mL Cm, +50 μg/mL Spect at a 1:20 ratio. After growth for ˜3 hours shaking (280 RPM) at 37° C., the culture was in exponential growth with an A600 absorbance measurement of ˜1. The culture was split into three 1 mL aliquots in Eppendorf tubes, then spun at full speed for one minute. The LB supernatant was removed and the small pellets were resuspended by gentle pipetting into 1 mL PBS and transferred to culture tubes.
Approximately 1 μL of EMS (Sigma M0880) was added to the first tube (0.1% EMS, final conc.) and approximately 10 μL of EMS was added to the second tube (1% EMS, final conc.). The third tube received no EMS (0% EMS). After mixing, the tubes were incubated at 37° C. with shaking for one hour. The 1 mL cultures were transferred back into Eppendorf tubes and spun at full speed for 1 minute. The pellets were washed once with PBS to remove EMS and resuspended in 1 mL LB+25 μg/mL Cm, +50 μg/mL Spect. […]

DNA = settings: D832A/E925A (dLbCpf1); D10A/H840A (dSpCas9); cited from earlier work

| Molecule | modifications that are G:C→A:T base pair transitions [1] | colonies with an in-frame 15 nucleotide deletion (rpoB gene [2]) | mutations previously described as inducing the Rif^r phenotype identified in the EMS screen (rpoB gene [2]) | mutations identified within the 268-bp stretch of rpoB, all G:C→A:T transitions (rpoB gene [3]) | increase of mutation rate relative to the spontaneous mutation rate (rpoB gene [4]; 0.1% EMS) | Rif^r CFUs in 5 μL (average) (rpoB gene [4]; 0.1% EMS) | Rif^r CFUs in 100 μL (average) (rpoB gene [4]; 0.1% EMS) | increase of mutation rate relative to the spontaneous mutation rate (rpoB gene [4]; 1.0% EMS) | Rif^r CFUs in 5 μL (average) (rpoB gene [4]; 1% EMS) | Rif^r CFUs in 100 μL (average) (rpoB gene [4]; 1% EMS) | DNA cleavage activity (DNA) |
| --- | --- | --- | --- | --- | --- | --- | --- | --- | --- | --- | --- |
| CCOS(C)(=O)=O [EMS, ethyl methanesulfonate] | 70% to 99% | Four | ten of the thirteen | 40 | ~40 × | 18 CFUs | 280 CFUs | ~2600 × | 1036 CFUs | >10^4 CFUs | – |
| dSpCas9: dead SpCas9 with D10A and H840A substitutions (SEQ ID NO: 22) | – | – | – | – | – | – | – | – | – | – | complete abolishment of DNA cleavage activity |
